Assay [1] addresses T1, Alpha-1A adrenergic receptor (Homo sapiens, UniProt P35348).
T1 sequence (P35348 whole entry): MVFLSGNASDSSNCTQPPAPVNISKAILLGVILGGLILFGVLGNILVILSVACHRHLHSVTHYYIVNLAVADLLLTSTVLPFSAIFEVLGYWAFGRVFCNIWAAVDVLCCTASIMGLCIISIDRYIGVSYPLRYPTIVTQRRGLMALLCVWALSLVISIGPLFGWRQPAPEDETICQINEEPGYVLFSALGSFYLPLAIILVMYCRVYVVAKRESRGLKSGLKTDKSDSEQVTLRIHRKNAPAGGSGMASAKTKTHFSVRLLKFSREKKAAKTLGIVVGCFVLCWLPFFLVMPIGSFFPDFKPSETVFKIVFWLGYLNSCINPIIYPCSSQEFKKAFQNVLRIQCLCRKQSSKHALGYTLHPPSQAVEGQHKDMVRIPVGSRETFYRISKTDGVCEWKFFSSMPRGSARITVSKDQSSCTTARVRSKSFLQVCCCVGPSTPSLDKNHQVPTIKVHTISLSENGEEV
The class given is functional, cell-based.

The target of assay [2] is T2, Muscarinic acetylcholine receptor M1 (Homo sapiens, UniProt P11229).
T2 sequence (P11229 whole entry): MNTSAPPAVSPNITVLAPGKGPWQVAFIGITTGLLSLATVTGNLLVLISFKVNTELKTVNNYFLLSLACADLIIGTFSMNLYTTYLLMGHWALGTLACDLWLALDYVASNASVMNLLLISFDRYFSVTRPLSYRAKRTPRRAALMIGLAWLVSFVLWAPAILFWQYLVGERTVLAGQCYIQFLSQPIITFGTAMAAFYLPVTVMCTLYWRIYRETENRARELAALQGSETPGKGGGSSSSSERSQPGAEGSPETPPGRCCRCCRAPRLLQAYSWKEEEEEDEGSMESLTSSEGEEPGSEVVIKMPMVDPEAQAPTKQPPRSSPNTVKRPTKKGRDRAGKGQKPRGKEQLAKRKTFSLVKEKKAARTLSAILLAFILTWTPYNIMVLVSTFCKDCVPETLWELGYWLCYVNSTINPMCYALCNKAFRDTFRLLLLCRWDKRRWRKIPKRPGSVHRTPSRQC
The class given is functional, cell-based.

For assay [3], the target named is Sodium-dependent noradrenaline transporter (Homo sapiens, UniProt P23975).
Sequence of Sodium-dependent noradrenaline transporter (P23975 whole entry): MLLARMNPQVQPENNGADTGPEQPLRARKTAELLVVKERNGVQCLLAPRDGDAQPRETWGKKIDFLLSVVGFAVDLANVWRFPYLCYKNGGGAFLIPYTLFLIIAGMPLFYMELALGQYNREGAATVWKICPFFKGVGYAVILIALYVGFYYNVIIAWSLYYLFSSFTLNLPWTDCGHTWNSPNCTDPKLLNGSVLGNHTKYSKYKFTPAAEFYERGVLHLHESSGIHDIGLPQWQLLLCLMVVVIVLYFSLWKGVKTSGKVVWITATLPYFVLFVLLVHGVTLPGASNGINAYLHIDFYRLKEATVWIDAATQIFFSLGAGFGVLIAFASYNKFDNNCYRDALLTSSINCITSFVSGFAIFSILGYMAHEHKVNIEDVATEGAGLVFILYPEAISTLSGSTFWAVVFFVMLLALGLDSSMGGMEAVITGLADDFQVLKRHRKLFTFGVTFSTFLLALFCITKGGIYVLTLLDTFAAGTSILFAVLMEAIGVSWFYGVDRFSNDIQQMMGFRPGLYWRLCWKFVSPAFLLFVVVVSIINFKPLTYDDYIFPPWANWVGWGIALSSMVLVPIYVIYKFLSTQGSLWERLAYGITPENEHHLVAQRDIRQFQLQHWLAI
Assay [4] deals with Prostaglandin G/H synthase 1 (Homo sapiens, UniProt P23219). The class given is functional.
Sequence of Prostaglandin G/H synthase 1 (P23219 whole entry): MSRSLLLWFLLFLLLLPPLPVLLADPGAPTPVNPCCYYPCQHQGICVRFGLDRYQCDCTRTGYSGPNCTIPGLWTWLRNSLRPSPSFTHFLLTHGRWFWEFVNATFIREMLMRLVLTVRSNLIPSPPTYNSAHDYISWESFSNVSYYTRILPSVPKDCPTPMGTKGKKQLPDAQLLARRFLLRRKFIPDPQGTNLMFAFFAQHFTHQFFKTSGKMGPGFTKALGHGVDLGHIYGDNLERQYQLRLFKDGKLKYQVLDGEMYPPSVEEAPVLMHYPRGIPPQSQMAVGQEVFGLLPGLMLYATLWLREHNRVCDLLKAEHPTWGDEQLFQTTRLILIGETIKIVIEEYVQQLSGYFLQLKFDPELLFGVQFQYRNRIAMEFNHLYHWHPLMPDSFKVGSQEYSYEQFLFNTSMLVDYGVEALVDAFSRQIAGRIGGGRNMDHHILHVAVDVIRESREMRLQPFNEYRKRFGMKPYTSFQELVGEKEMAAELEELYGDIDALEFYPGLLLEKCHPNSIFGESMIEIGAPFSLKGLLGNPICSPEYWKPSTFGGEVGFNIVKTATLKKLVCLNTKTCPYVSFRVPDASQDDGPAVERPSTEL
Assay [5] deals with 5-hydroxytryptamine receptor 2A (Homo sapiens, UniProt P28223). It is filed as functional, cell-based.
Sequence of 5-hydroxytryptamine receptor 2A (P28223 whole entry): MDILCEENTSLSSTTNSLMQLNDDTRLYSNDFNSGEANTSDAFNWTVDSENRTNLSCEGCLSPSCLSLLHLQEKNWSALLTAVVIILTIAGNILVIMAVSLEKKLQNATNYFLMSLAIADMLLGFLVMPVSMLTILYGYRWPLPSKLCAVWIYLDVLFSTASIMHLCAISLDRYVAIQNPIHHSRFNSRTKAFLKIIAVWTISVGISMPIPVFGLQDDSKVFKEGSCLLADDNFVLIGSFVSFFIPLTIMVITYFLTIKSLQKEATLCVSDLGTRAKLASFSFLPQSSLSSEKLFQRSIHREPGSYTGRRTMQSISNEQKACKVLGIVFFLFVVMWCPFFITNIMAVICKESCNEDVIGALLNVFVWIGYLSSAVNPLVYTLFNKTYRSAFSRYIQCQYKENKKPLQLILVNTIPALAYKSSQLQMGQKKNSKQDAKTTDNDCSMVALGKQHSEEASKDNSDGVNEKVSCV
Another assay has as its target T3, Endothelin-1 receptor (Homo sapiens, UniProt P25101).
T3 sequence (P25101 whole entry): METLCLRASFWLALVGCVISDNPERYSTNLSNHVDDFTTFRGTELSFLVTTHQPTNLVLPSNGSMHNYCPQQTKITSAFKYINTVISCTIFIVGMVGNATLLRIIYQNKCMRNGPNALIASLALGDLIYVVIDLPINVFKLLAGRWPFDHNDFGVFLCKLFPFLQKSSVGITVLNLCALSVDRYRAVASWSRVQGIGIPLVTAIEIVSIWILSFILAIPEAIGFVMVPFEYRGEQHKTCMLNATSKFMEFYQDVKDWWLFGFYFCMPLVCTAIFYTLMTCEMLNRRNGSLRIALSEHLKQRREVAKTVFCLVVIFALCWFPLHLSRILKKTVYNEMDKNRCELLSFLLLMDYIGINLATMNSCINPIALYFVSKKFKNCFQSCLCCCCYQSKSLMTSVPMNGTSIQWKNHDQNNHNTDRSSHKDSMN

The target of assay [6] is Gamma-aminobutyric acid receptor subunit alpha-1 (Rattus norvegicus, UniProt P62813). The class given is functional.
Sequence of Gamma-aminobutyric acid receptor subunit alpha-1 (P62813 whole entry): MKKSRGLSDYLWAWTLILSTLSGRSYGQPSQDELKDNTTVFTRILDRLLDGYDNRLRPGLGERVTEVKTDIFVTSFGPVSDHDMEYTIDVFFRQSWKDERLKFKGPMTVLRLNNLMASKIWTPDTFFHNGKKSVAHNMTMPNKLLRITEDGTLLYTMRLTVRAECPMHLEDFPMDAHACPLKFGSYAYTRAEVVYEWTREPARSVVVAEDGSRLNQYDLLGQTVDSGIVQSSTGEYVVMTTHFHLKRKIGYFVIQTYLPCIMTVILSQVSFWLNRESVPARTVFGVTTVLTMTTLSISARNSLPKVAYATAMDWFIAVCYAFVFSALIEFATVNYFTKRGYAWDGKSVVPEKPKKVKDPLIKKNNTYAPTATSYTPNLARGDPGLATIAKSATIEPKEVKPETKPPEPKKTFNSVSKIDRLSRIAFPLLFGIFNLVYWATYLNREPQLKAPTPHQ
Assay [7] deals with Muscarinic acetylcholine receptor M3 (Homo sapiens, UniProt P20309).
Sequence of Muscarinic acetylcholine receptor M3 (P20309 whole entry): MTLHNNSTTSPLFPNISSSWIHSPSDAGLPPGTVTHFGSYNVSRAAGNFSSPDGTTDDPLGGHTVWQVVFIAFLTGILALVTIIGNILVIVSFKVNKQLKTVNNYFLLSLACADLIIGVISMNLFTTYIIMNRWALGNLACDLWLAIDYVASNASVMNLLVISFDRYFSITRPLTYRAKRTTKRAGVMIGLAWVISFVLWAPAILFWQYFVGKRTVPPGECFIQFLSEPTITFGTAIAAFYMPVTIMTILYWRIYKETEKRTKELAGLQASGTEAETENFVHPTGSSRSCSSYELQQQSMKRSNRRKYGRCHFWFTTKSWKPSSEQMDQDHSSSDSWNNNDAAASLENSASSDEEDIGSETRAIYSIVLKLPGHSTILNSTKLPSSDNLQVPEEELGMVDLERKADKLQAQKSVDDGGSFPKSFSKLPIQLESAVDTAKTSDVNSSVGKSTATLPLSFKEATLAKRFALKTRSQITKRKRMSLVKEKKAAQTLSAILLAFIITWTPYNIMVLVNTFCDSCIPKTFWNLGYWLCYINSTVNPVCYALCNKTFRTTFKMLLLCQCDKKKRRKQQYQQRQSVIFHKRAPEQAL
The target of assay [8] is T4, 5-hydroxytryptamine receptor 1A (Homo sapiens, UniProt P08908).
T4 sequence (P08908 whole entry): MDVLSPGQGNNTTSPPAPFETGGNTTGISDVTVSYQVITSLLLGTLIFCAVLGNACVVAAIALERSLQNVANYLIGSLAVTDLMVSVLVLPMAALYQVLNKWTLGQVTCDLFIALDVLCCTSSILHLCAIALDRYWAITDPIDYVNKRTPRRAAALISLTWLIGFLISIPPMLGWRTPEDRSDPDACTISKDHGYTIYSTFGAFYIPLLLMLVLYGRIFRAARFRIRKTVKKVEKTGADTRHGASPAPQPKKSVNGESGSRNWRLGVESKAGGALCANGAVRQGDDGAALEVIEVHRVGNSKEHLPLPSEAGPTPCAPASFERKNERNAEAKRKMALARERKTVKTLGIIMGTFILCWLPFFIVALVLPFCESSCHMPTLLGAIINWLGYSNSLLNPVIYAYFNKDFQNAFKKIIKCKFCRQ
It is filed as functional, cell-based.

Assay [9] deals with T5, Alpha-2B adrenergic receptor (Homo sapiens, UniProt P18089).
T5 sequence (P18089 whole entry): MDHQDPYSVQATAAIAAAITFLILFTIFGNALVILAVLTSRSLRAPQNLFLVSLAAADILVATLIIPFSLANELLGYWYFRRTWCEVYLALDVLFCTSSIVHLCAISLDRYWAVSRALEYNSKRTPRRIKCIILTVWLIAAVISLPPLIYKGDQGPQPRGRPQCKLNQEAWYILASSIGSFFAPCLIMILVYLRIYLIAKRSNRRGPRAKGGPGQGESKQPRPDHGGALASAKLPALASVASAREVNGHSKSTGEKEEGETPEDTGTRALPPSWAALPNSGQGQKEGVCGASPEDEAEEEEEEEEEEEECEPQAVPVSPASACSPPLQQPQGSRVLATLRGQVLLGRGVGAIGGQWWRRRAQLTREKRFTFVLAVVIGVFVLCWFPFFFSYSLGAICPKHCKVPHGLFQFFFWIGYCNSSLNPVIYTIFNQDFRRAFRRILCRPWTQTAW

The target in a further assay is Cannabinoid receptor 1 (Homo sapiens, UniProt P21554). The class given is functional, cell-based.
Sequence of Cannabinoid receptor 1 (P21554 whole entry): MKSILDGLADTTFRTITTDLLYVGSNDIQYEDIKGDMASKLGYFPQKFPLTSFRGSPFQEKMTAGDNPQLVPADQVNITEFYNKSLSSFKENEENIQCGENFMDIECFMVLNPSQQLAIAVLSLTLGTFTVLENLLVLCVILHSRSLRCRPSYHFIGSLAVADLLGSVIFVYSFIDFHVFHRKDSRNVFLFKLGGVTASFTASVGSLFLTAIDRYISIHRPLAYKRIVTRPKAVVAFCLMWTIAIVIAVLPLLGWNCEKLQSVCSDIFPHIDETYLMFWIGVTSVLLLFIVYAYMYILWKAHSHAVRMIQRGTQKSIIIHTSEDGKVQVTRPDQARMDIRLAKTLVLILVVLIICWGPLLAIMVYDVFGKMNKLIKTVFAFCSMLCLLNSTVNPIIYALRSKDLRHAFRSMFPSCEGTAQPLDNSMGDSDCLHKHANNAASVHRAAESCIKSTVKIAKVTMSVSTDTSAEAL
For another assay, the target named is Mu-type opioid receptor (Homo sapiens, UniProt P35372). Kind of assay: biochemical. It is filed as functional.
Sequence of Mu-type opioid receptor (P35372 whole entry): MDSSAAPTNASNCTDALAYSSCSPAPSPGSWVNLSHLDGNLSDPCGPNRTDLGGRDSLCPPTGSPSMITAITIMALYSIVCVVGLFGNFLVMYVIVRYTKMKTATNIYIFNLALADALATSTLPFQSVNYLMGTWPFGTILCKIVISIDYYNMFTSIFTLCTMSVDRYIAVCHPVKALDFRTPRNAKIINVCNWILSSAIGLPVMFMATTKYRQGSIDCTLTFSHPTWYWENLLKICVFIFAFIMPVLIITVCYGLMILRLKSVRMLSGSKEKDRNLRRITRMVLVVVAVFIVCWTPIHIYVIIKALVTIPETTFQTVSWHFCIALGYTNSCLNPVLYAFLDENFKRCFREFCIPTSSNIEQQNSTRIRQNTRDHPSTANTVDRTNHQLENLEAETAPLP
For assay [10], the target named is T2, Muscarinic acetylcholine receptor M1. The class given is functional.

Drawing on ChEMBL document CHEMBL5291721, “A preclinical secondary pharmacology resource illuminates target-adverse drug reaction associations of marketed drugs” (Nat Commun, 2023), this text covers AC50 for 16 compounds.
Note: assay procedure not described here.

As to `CC(C)N(CCNC(=O)CN1CCCC1=O)C(C)C`, the AC50 in assay [1], in assay [2], in assay [3] and in [4] was greater than 30 µM each time.
For the compound `Cc1cc(N)c2ccccc2[n+]1CCCCCCCCCC[n+]1c(C)cc(N)c2ccccc21`, the AC50 in assay [1] is 3.21 µM; in assay [2], greater than 30 µM; in assay [3] it was 1.47 µM; in [4] it was 1.57 µM.
Regarding `CCOC(=O)[C@H](CCc1ccccc1)N[C@@H](C)C(=O)N(CC(=O)O)C1Cc2ccccc2C1`, the AC50 in assay [1], in assay [2], in [3] and in assay [4] was greater than 30 µM throughout.
For the compound `CC(=O)N[C@@H](CS)C(=O)O` [ACETYLCYSTEINE], the AC50 in assay [5] is greater than 30 µM; on Endothelin-1 receptor it was greater than 30 µM; in [6] it was greater than 30 µM; in assay [7], greater than 30 µM; in [8], greater than 30 µM; in [9] it was greater than 10 µM. Moreover, the AC50 (on Cannabinoid receptor 1; at Mu-type opioid receptor; in [10]) was greater than 30 µM in each case.
As for `C=CCNc1nc(NCC=C)nc(N2CCN(C(c3ccc(F)cc3)c3ccc(F)cc3)CC2)n1` [ALMITRINE], the AC50 (in [5]; on Endothelin-1 receptor; in [6]; in [7]; in assay [8]; in assay [9]) was greater than 30 µM each time. In addition, the AC50 (at Mu-type opioid receptor; in assay [10]) was greater than 30 µM in each case.
On to `CC(C)COCC(CN(Cc1ccccc1)c1ccccc1)N1CCCC1` (configuration not stated) [BEPRIDIL], for which the AC50 in assay [5] was greater than 30 µM; on Endothelin-1 receptor, greater than 30 µM; in assay [7] it was 17 µM; in [8] it was greater than 10 µM; in assay [9], 6.2 µM; at Mu-type opioid receptor, 17 µM. In addition, in [10], the AC50 worked out at 23 µM.
For the compound `C/N=C(\NC)NCc1ccccc1` [BETHANIDINE], the AC50 (in assay [5]; on Endothelin-1 receptor; in [6]; in [7]; in assay [8]; in assay [9]) was greater than 30 µM each time. The AC50 (at Cannabinoid receptor 1; on Mu-type opioid receptor; in [10]) was greater than 30 µM in each case.
For `COCC1=C(C(=O)O)N2C(=O)[C@@H](NC(=O)/C(=N\OC)c3csc(N)n3)[C@H]2SC1` [CEFPODOXIME], the AC50 (in assay [5]; on Endothelin-1 receptor; in assay [6]; in assay [7]; in assay [8]; in assay [9]) was greater than 30 µM each time. For the same compound, the concentration at half-maximal activity (AC50) (on Cannabinoid receptor 1; at Mu-type opioid receptor; in assay [10]) was greater than 30 µM each time.
In the case of `CC1OC2(CS1)CN1CCC2CC1` (configuration not stated) [CEVIMELINE], the AC50 is greater than 10 µM in assay [5]; greater than 10 µM in [6]; greater than 30 µM in assay [7]; greater than 10 µM in assay [8]; greater than 30 µM in assay [9]; greater than 30 µM at Mu-type opioid receptor. Moreover, the AC50 in assay [10] is greater than 30 µM.
Consider `Nc1ncn([C@H]2C[C@H](O)[C@@H](CO)O2)c(=O)n1` [DECITABINE], for which the AC50 (in [5]; in [6]; in assay [7]; in [8]; in assay [9]; on Mu-type opioid receptor) was greater than 30 µM in each case. The AC50 in [10] is greater than 30 µM.
Regarding `C[C@]12CCC(=O)C(O)=C1CC[C@@H]1[C@@H]2CC[C@]2(C)C(=O)CC[C@@H]12` [FORMESTANE], the AC50 (in assay [5]; on Endothelin-1 receptor; in assay [6]; in assay [7]; in [8]; in assay [9]) was greater than 30 µM throughout. Further, the half-maximal activity concentration (AC50) (at Cannabinoid receptor 1; at Mu-type opioid receptor; in assay [10]) was greater than 30 µM in each case.
Turning to `Oc1ccc2c(c1)CC[C@H](c1ccccc1)[C@@H]2c1ccc(OCCN2CCCC2)cc1` [LASOFOXIFENE], the AC50 in assay [5] is 12 µM; on Endothelin-1 receptor, greater than 30 µM; in assay [6], greater than 30 µM; in assay [7] it was 11 µM; in [8], greater than 30 µM; in [9], 8.2 µM. For the same compound, the AC50 on Cannabinoid receptor 1 was greater than 30 µM; on Mu-type opioid receptor, greater than 30 µM; in [10] it was 11 µM.
Regarding `O=[N+]([O-])c1ccc(O)c2ncccc12` [NITROXOLINE], the AC50 was greater than 30 µM in assay [5]; greater than 30 µM in assay [6]; 7.6 µM in assay [7]; greater than 30 µM in [8]; 8.8 µM in assay [9]; greater than 30 µM at Cannabinoid receptor 1. Also, the AC50 in assay [10] was 8.5 µM; in assay [3], greater than 30 µM; in assay [4] it was greater than 30 µM.
With `C#C[C@]1(OC(C)=O)CC[C@H]2[C@@H]3CCC4=C/C(=N/O)CC[C@@H]4[C@H]3CC[C@@]21CC` [NORGESTIMATE], the AC50 (in [5]; at Endothelin-1 receptor; in assay [6]; in assay [8]; in [9]; at Cannabinoid receptor 1) was greater than 30 µM each time. The AC50 (at Mu-type opioid receptor; in [10]) was greater than 30 µM each time.
Consider `Clc1ccc(C(Cn2ccnc2)OCc2ccsc2Cl)c(Cl)c1` (configuration not stated) [TIOCONAZOLE], for which the AC50 in assay [5] was greater than 30 µM; in [6] it was greater than 30 µM; in [7], 26 µM; in [8], greater than 30 µM; in [9], greater than 30 µM; on Mu-type opioid receptor, greater than 30 µM. In assay [10], this compound returned an AC50 greater than 30 µM.
In the case of `CC(C)[C@H](N)C(=O)OCC(CO)OCn1cnc2c(=O)nc(N)[nH]c21` (some centres not stated) [VALGANCICLOVIR], the AC50 (in assay [5]; in [6]; in assay [7]; in assay [8]; in assay [9]; at Mu-type opioid receptor) was greater than 30 µM each time. In assay [10], the half-maximal activity concentration (AC50) was greater than 30 µM.

For orientation: AC50 means the concentration at which the activity in the assay is half-maximal. Lower therefore signals greater potency.
